Reference: the NIST ThermoML archive (doi:10.1021/acs.jced.9b00145)

Test: xn = mol fraction of the nth substance listed
Settings: 100 kPa, Liquid, Vibrating tube method, x2 = 0.3333

NC(N)=O [urea] + C[N+](C)(C)CCO.[Cl-]
Settings	mass density [kg/m3]
293.15 K	1199.42
298.15 K	1196.68
303.15 K	1193.96
308.15 K	1191.19
313.15 K	1188.52
318.15 K	1185.87
323.15 K	1183.2
328.15 K	1180.53
333.15 K	1177.87
338.15 K	1175.22
